# Results from article PMC5218480 (PLoS ONE, 2017).
# Tested on: MV-4-11 cells
# Experiment: Gene expression microarray analysis (Affymetrix PrimeView) and GSEA
# Assay type: cell-based, human
# Design: RFU PODN (11730768_x_at) / Fold change /veh PODN (11730768_x_at) / RFU LINC00158 (11744669_a_at) / Fold change /veh LINC00158 (11744669_a_at) / RFU DUSP10 (11751237_a_at) / Fold change /veh DUSP10 (11751237_a_at) / RFU ID3 (11757404_x_at) / Fold change /veh ID3 (11757404_x_at) / RFU PLEKHG5 (11737974_s_at) / Fold change /veh PLEKHG5 (11737974_s_at) / RFU LRRC4B (11730491_at) / Fold change /veh LRRC4B (11730491_at) / RFU GIMAP4 (11747438_a_at) / Fold change /veh GIMAP4 (11747438_a_at) / RFU KRT8 (11758183_x_at) / Fold change /veh KRT8 (11758183_x_at) / RFU CNN1 (11734310_a_at) / Fold change /veh CNN1 (11734310_a_at) / RFU VPS37D (11726825_at) / Fold change /veh VPS37D (11726825_at) / RFU C10orf10 (11716522_x_at) / Fold change /veh C10orf10 (11716522_x_at) / RFU KIR2DL2 /// KIR2DL4 /// KIR2DL5A /// KIR2DL5B /// KIR2DS1 /// KIR2DS2 /// KIR2DS3 /// KIR2DS4 /// KIR3DL3 /// KIR3DL3 /// KIR3DS1 (11738374_at) / Fold change /veh KIR2DL2 /// KIR2DL4 /// KIR2DL5A /// KIR2DL5B /// KIR2DS1 /// KIR2DS2 /// KIR2DS3 /// KIR2DS4 /// KIR3DL3 /// KIR3DL3 /// KIR3DS1 (11738374_at) / RFU C1QL1 (11718748_at) / Fold change /veh C1QL1 (11718748_at) / RFU TMPRSS4 (11747572_a_at) / Fold change /veh TMPRSS4 (11747572_a_at) / RFU HAMP (11756126_x_at) / Fold change /veh HAMP (11756126_x_at) / RFU RNFT2 (11725882_a_at) / Fold change /veh RNFT2 (11725882_a_at) / RFU NR4A2 (11747474_a_at) / Fold change /veh NR4A2 (11747474_a_at) / RFU ABCC12 (11746883_a_at) / Fold change /veh ABCC12 (11746883_a_at) / RFU TMEM136 (11760407_x_at) / Fold change /veh TMEM136 (11760407_x_at) / RFU CLDN22 /// WWC2 (11732394_at) / Fold change /veh CLDN22 /// WWC2 (11732394_at) / RFU HLA-DPB1 (11760878_x_at) / Fold change /veh HLA-DPB1 (11760878_x_at) / RFU SPINT1 (11716480_a_at) / Fold change /veh SPINT1 (11716480_a_at) / RFU GAP43 (11754022_s_at) / Fold change /veh GAP43 (11754022_s_at) / RFU A4GNT (11735810_at) / Fold change /veh A4GNT (11735810_at) / RFU PRB3 (11715151_x_at) / Fold change /veh PRB3 (11715151_x_at) / RFU TUBB4B (11761932_at) / Fold change /veh TUBB4B (11761932_at) / RFU CAPN14 (11732068_a_at) / Fold change /veh CAPN14 (11732068_a_at) / RFU TMCC2 (11721928_a_at) / Fold change /veh TMCC2 (11721928_a_at) / RFU IRGQ (11745062_a_at) / Fold change /veh IRGQ (11745062_a_at) / RFU FAM174B (11720279_a_at) / Fold change /veh FAM174B (11720279_a_at) / RFU TMPRSS4 (11748680_a_at) / Fold change /veh TMPRSS4 (11748680_a_at) / RFU FAM212B (11763350_a_at) / Fold change /veh FAM212B (11763350_a_at) / RFU PLEKHG5 (11743358_a_at) / Fold change /veh PLEKHG5 (11743358_a_at) / RFU ZSCAN30 (11745921_a_at) / Fold change /veh ZSCAN30 (11745921_a_at) / RFU CMKLR1 (11741424_a_at) / Fold change /veh CMKLR1 (11741424_a_at) / RFU LOC101060620 /// MAPK8IP1 (11723275_at) / Fold change /veh LOC101060620 /// MAPK8IP1 (11723275_at) / RFU SPTSSB (11747773_x_at) / Fold change /veh SPTSSB (11747773_x_at) / RFU PRSS12 (11739890_at) / Fold change /veh PRSS12 (11739890_at) / RFU BIN1 (11741810_x_at) / Fold change /veh BIN1 (11741810_x_at) / RFU WNT11 (11732464_a_at) / Fold change /veh WNT11 (11732464_a_at) / RFU C10orf10 (11716521_a_at) / Fold change /veh C10orf10 (11716521_a_at) / RFU C5orf56 (11738089_at) / Fold change /veh C5orf56 (11738089_at) / RFU CYB561 (11721691_x_at) / Fold change /veh CYB561 (11721691_x_at) / RFU ANKRD19P (11752326_a_at) / Fold change /veh ANKRD19P (11752326_a_at) / RFU OR2T12 /// OR2T33 /// OR2T8 (11738714_s_at) / Fold change /veh OR2T12 /// OR2T33 /// OR2T8 (11738714_s_at) / RFU VCAN (11748164_a_at) / Fold change /veh VCAN (11748164_a_at) / RFU JSRP1 (11732532_at) / Fold change /veh JSRP1 (11732532_at) / RFU KRTAP10-11 (11738290_x_at) / Fold change /veh KRTAP10-11 (11738290_x_at) / RFU MYO3A (11730013_a_at) / Fold change /veh MYO3A (11730013_a_at) / RFU EBF3 (11725865_a_at) / Fold change /veh EBF3 (11725865_a_at) / RFU CAMK2N1 (11719241_x_at) / Fold change /veh CAMK2N1 (11719241_x_at) / RFU C5orf56 (11738088_a_at) / Fold change /veh C5orf56 (11738088_a_at) / RFU OLFML3 (11715873_a_at) / Fold change /veh OLFML3 (11715873_a_at) / RFU LOC100653217 /// NTM (11731650_a_at) / Fold change /veh LOC100653217 /// NTM (11731650_a_at) / RFU MAPK11 (11762145_a_at) / Fold change /veh MAPK11 (11762145_a_at) / RFU FIZ1 (11724087_x_at) / Fold change /veh FIZ1 (11724087_x_at) / RFU OASL (11726364_x_at) / Fold change /veh OASL (11726364_x_at) / RFU SOX15 (11748057_x_at) / Fold change /veh SOX15 (11748057_x_at) / RFU CD79A (11719716_a_at) / Fold change /veh CD79A (11719716_a_at) / RFU HIST1H1D (11736915_at) / Fold change /veh HIST1H1D (11736915_at) / RFU CASKIN2 (11723855_a_at) / Fold change /veh CASKIN2 (11723855_a_at) / RFU LOC730098 (11760151_x_at) / Fold change /veh LOC730098 (11760151_x_at) / RFU OR4N2 (11742367_at) / Fold change /veh OR4N2 (11742367_at) / RFU PRRT2 (11749266_a_at) / Fold change /veh PRRT2 (11749266_a_at) / RFU SNX32 (11753110_a_at) / Fold change /veh SNX32 (11753110_a_at) / RFU CDHR5 (11726645_a_at) / Fold change /veh CDHR5 (11726645_a_at) / RFU RCAN1 (11760418_a_at) / Fold change /veh RCAN1 (11760418_a_at) / RFU FAM167A (11723789_a_at) / Fold change /veh FAM167A (11723789_a_at) / RFU FAM26E (11764081_at) / Fold change /veh FAM26E (11764081_at) / RFU ISYNA1 (11749810_s_at) / Fold change /veh ISYNA1 (11749810_s_at) / RFU ACY1 (11761880_at) / Fold change /veh ACY1 (11761880_at) / RFU 11764098_at / Fold change /veh 11764098_at / RFU SAMD14 (11745864_x_at) / Fold change /veh SAMD14 (11745864_x_at) / RFU NPB (11741838_a_at) / Fold change /veh NPB (11741838_a_at) / RFU TMPRSS6 (11731388_a_at) / Fold change /veh TMPRSS6 (11731388_a_at) / RFU KRTAP10-2 (11738614_at) / Fold change /veh KRTAP10-2 (11738614_at) / RFU ARHGAP8 /// PRR5-ARHGAP8 (11727945_x_at) / Fold change /veh ARHGAP8 /// PRR5-ARHGAP8 (11727945_x_at) / RFU KRTAP5-7 /// NADSYN1 (11734609_at) / Fold change /veh KRTAP5-7 /// NADSYN1 (11734609_at) / RFU RASL12 (11751679_a_at) / Fold change /veh RASL12 (11751679_a_at) / RFU CDKN2B (11736163_a_at) / Fold change /veh CDKN2B (11736163_a_at) / RFU PRF1 (11729649_at) / Fold change /veh PRF1 (11729649_at) / RFU, ZNF638 /// ZNF638-IT1 / Fold change vs veh, ZNF638 /// ZNF638-IT1 / RFU, PANK3 / Fold change vs veh, PANK3 / RFU, SH3YL1 / Fold change vs veh, SH3YL1 / RFU, ZEB2 / Fold change vs veh, ZEB2 / RFU, NRIP1 / Fold change vs veh, NRIP1 / RFU, PTTG1IP / Fold change vs veh, PTTG1IP / RFU, CAPN2 / Fold change vs veh, CAPN2 / RFU, MED14 / Fold change vs veh, MED14 / RFU, SNORA58 / Fold change vs veh, SNORA58 / RFU, C1orf63 / Fold change vs veh, C1orf63 / RFU, LRRFIP1 / Fold change vs veh, LRRFIP1 / RFU, NDUFAF7 / Fold change vs veh, NDUFAF7 / RFU, SLC12A2 / Fold change vs veh, SLC12A2 / RFU, IBTK / Fold change vs veh, IBTK / RFU, ESF1 / Fold change vs veh, ESF1 / Fold change vs veh, TMEM50B / RFU, TAOK1 / Fold change vs veh, TAOK1 / RFU, ACBD3 / Fold change vs veh, ACBD3 / RFU, TMA16 / Fold change vs veh, TMA16 / RFU, RWDD3 / Fold change vs veh, RWDD3 / RFU, BCAT1 / Fold change vs veh, BCAT1 / RFU, EDEM3 / Fold change vs veh, EDEM3 / RFU, TMEM33 / Fold change vs veh, TMEM33 / RFU, WDR75 / Fold change vs veh, WDR75 / RFU, AHCTF1 / Fold change vs veh, AHCTF1 / RFU, TFRC / Fold change vs veh, TFRC / RFU, ZDHHC17 / Fold change vs veh, ZDHHC17 / RFU, NOM1 / Fold change vs veh, NOM1 / RFU, ARL8B / Fold change vs veh, ARL8B / RFU, ZBTB11 / Fold change vs veh, ZBTB11 / RFU, TAMM41 / Fold change vs veh, TAMM41 / RFU, KIAA1704 /// LOC100996395 / Fold change vs veh, KIAA1704 /// LOC100996395 / RFU, ING1 / Fold change vs veh, ING1 / RFU, TRMT61B / Fold change vs veh, TRMT61B / RFU, FUBP3 / Fold change vs veh, FUBP3 / RFU, TP53 / Fold change vs veh, TP53 / RFU, TNKS2 / Fold change vs veh, TNKS2 / RFU, ZFP14 / Fold change vs veh, ZFP14 / RFU, ACTR2 / Fold change vs veh, ACTR2 / RFU, PPP3R1 / Fold change vs veh, PPP3R1 / RFU, PIK3R1 / Fold change vs veh, PIK3R1 / RFU, HNRNPA1 / Fold change vs veh, HNRNPA1 / RFU, RNF170 / Fold change vs veh, RNF170 / RFU, ZNF28 / Fold change vs veh, ZNF28 / RFU, RNGTT / Fold change vs veh, RNGTT / RFU, OGT / Fold change vs veh, OGT / RFU, BRD1 / Fold change vs veh, BRD1 / RFU, MARS / Fold change vs veh, MARS / RFU, ZNF655 / Fold change vs veh, ZNF655 / RFU, FAHD1 / Fold change vs veh, FAHD1 / RFU, BDP1 / Fold change vs veh, BDP1 / RFU, LRRCC1 / Fold change vs veh, LRRCC1 / RFU, ARID1A / Fold change vs veh, ARID1A / RFU, ZNF146 / Fold change vs veh, ZNF146 / RFU, ZNF330 / Fold change vs veh, ZNF330 / RFU, GPN3 / Fold change vs veh, GPN3 / RFU, C9orf123 / Fold change vs veh, C9orf123 / RFU, N4BP2L2 / Fold change vs veh, N4BP2L2 / RFU, ARFIP1 / Fold change vs veh, ARFIP1 / RFU, FAM179B / Fold change vs veh, FAM179B / RFU, BCL10 / Fold change vs veh, BCL10 / RFU, UHRF1BP1L / Fold change vs veh, UHRF1BP1L / RFU, BET1 / Fold change vs veh, BET1 / RFU, CNOT2 / Fold change vs veh, CNOT2 / RFU, ZNF268 / Fold change vs veh, ZNF268 / Fold change vs veh, ZNF507 / RFU, DGCR2 / Fold change vs veh, DGCR2 / RFU, WDSUB1 / Fold change vs veh, WDSUB1 / Fold change vs veh, HSP90B1 /// MIR3652 / RFU, ADSS / Fold change vs veh, ADSS / RFU, GK / Fold change vs veh, GK / RFU, ZNF148 / Fold change vs veh, ZNF148 / RFU, TAF9 / Fold change vs veh, TAF9 / RFU, SLC1A5 / Fold change vs veh, SLC1A5 / RFU, SLMO2 / Fold change vs veh, SLMO2 / RFU, ABCC4 / Fold change vs veh, ABCC4 / RFU, LOC101060439 /// RAP1B / Fold change vs veh, LOC101060439 /// RAP1B / RFU, RFX7 / Fold change vs veh, RFX7 / RFU, GTPBP10 / Fold change vs veh, GTPBP10 / RFU, CNEP1R1 / Fold change vs veh, CNEP1R1 / RFU, BIVM-ERCC5 /// ERCC5 / Fold change vs veh, BIVM-ERCC5 /// ERCC5 / RFU, ILF3 / Fold change vs veh, ILF3 / RFU 11762660_at / Fold change /veh 11762660_at / RFU VCAN (11757783_s_at) / Fold change /veh VCAN (11757783_s_at) / RFU DDX43 (11728927_at) / Fold change /veh DDX43 (11728927_at) / RFU KRT8 (11758188_x_at) / Fold change /veh KRT8 (11758188_x_at) / RFU NKD1 (11759106_at) / Fold change /veh NKD1 (11759106_at) / RFU SRD5A1 (11742802_a_at) / Fold change /veh SRD5A1 (11742802_a_at) / RFU TPSAB1 /// TPSB2 (11721975_s_at) / Fold change /veh TPSAB1 /// TPSB2 (11721975_s_at) / RFU GSTM3 (11746129_a_at) / Fold change /veh GSTM3 (11746129_a_at) / RFU IL23R (11737362_x_at) / Fold change /veh IL23R (11737362_x_at) / RFU TMEM51 (11727254_a_at) / Fold change /veh TMEM51 (11727254_a_at) / RFU PIWIL2 (11732686_x_at) / Fold change /veh PIWIL2 (11732686_x_at) / RFU ORM1 (11744905_x_at) / Fold change /veh ORM1 (11744905_x_at) / RFU CCDC152 (11743942_at) / Fold change /veh CCDC152 (11743942_at) / RFU ECM1 (11717891_a_at) / Fold change /veh ECM1 (11717891_a_at) / RFU IL23R (11748794_a_at) / Fold change /veh IL23R (11748794_a_at) / RFU TNFAIP8L3 (11732012_x_at) / Fold change /veh TNFAIP8L3 (11732012_x_at) / RFU MBOAT4 (11741988_at) / Fold change /veh MBOAT4 (11741988_at) / RFU 11764193_at / Fold change /veh 11764193_at / RFU TMEM53 (11763286_at) / Fold change /veh TMEM53 (11763286_at) / RFU MAGEB2 (11727129_at) / Fold change /veh MAGEB2 (11727129_at) / RFU TMEM200A (11744735_a_at) / Fold change /veh TMEM200A (11744735_a_at) / RFU CCDC152 (11751479_a_at) / Fold change /veh CCDC152 (11751479_a_at) / RFU FAM211A (11726209_a_at) / Fold change /veh FAM211A (11726209_a_at) / RFU RGS16 (11746705_a_at) / Fold change /veh RGS16 (11746705_a_at) / RFU VCAN (11755009_s_at) / Fold change /veh VCAN (11755009_s_at) / RFU RHOB (11743442_s_at) / Fold change /veh RHOB (11743442_s_at) / RFU RGS16 (11720943_a_at) / Fold change /veh RGS16 (11720943_a_at) / RFU RGS16 (11720944_at) / Fold change /veh RGS16 (11720944_at) / RFU, VPS4B / Fold change vs veh, VPS4B / RFU, CREB1 / Fold change vs veh, CREB1 / RFU, DNAJC13 / Fold change vs veh, DNAJC13 / RFU, GNAQ / Fold change vs veh, GNAQ / RFU, CDK5R1 / Fold change vs veh, CDK5R1 / RFU, ZRANB3 / Fold change vs veh, ZRANB3 / RFU, CUL4A / Fold change vs veh, CUL4A / RFU, CCNY / Fold change vs veh, CCNY / RFU, UFL1 / Fold change vs veh, UFL1 / RFU, COG3 / Fold change vs veh, COG3 / RFU, DIAPH2 / Fold change vs veh, DIAPH2 / RFU, SKA2 / Fold change vs veh, SKA2 / RFU, AFF3 / Fold change vs veh, AFF3 / RFU, LMF1 / Fold change vs veh, LMF1 / RFU, IPO11 / Fold change vs veh, IPO11 / RFU, DFFB / Fold change vs veh, DFFB / RFU, FOXP1 / Fold change vs veh, FOXP1 / RFU, CARD8 / Fold change vs veh, CARD8 / RFU, STRN3 / Fold change vs veh, STRN3 / RFU, ADK / Fold change vs veh, ADK / RFU, RASSF2 / Fold change vs veh, RASSF2 / RFU, WIPF1 / Fold change vs veh, WIPF1 / RFU, LARP1B / Fold change vs veh, LARP1B / RFU, RASA1 / Fold change vs veh, RASA1 / RFU, RB1 / Fold change vs veh, RB1 / RFU, PPFIA1 / Fold change vs veh, PPFIA1 / RFU, MAT2A / Fold change vs veh, MAT2A / RFU, CCT5 / Fold change vs veh, CCT5 / RFU, WDR92 / Fold change vs veh, WDR92 / RFU, CUX1 / Fold change vs veh, CUX1 / RFU, TTC7A / Fold change vs veh, TTC7A / RFU, TMEM135 / Fold change vs veh, TMEM135 / RFU, DEPTOR / Fold change vs veh, DEPTOR / RFU, CPM / Fold change vs veh, CPM / RFU, DNAJB6 / Fold change vs veh, DNAJB6 / RFU, CACNA2D3 / Fold change vs veh, CACNA2D3 / RFU, DTX4 / Fold change vs veh, DTX4 / RFU, TFCP2 / Fold change vs veh, TFCP2 / RFU, GMCL1 /// GMCL1P1 / Fold change vs veh, GMCL1 /// GMCL1P1 / RFU, AEBP2 / Fold change vs veh, AEBP2 / RFU, SNHG1 /// SNORD22 /// SNORD25 /// SNORD26 /// SNORD27 /// SNORD28 /// SNORD29 /// SNORD31 / Fold change vs veh, SNHG1 /// SNORD22 /// SNORD25 /// SNORD26 /// SNORD27 /// SNORD28 /// SNORD29 /// SNORD31 / Fold change (Aza/veh), C12orf56 (ProbeSet 11735607_a_at) / Fold change (ACY-1035/veh), C12orf56 (ProbeSet 11735607_a_at) / Fold change (Aza/veh), FGFR1OP (ProbeSet 11751329_s_at) / Fold change (ACY-1035/veh), FGFR1OP (ProbeSet 11751329_s_at) / Fold change (Aza/veh), VPS36 (ProbeSet 11739960_a_at) / Fold change (ACY-1035/veh), VPS36 (ProbeSet 11739960_a_at) / RFU SYPL1 (11715823_x_at) / Fold change /veh SYPL1 (11715823_x_at) / RFU IGFBP7 (11715501_s_at) / Fold change /veh IGFBP7 (11715501_s_at) / RFU REEP3 (11722064_at) / Fold change /veh REEP3 (11722064_at) / RFU IGLL1 (11728026_x_at) / Fold change /veh IGLL1 (11728026_x_at): dose or concentration left out as unconfirmed
# Details: ProbeSet 11743286_at; LIST D
structure (smiles),measurement,value
Nc1ncn([C@@H]2O[C@H](CO)[C@@H](O)[C@H]2O)c(=O)n1 [azacitidine],"RFU, DTX4",164.39 RFU
